The source of these data is US4390629A, “Polypeptide degrading enzymes” (President and Fellows of Harvard College, priority 1981, dated 1983).

Where two headings read alike, the source gives them in different places.

In one data set the test system is Protease Ci. The data set is described as follows: Inhibition and stimulation of protease Ci insulin-degrading activity. The format is biochemical, E. coli.
The target of data set [1] is T1, La (Escherichia coli, UniProt P0A9M0).
The target in the next data set is T2, Protease Re (Escherichia coli, UniProt P23865).
T2 sequence (P23865 23-682): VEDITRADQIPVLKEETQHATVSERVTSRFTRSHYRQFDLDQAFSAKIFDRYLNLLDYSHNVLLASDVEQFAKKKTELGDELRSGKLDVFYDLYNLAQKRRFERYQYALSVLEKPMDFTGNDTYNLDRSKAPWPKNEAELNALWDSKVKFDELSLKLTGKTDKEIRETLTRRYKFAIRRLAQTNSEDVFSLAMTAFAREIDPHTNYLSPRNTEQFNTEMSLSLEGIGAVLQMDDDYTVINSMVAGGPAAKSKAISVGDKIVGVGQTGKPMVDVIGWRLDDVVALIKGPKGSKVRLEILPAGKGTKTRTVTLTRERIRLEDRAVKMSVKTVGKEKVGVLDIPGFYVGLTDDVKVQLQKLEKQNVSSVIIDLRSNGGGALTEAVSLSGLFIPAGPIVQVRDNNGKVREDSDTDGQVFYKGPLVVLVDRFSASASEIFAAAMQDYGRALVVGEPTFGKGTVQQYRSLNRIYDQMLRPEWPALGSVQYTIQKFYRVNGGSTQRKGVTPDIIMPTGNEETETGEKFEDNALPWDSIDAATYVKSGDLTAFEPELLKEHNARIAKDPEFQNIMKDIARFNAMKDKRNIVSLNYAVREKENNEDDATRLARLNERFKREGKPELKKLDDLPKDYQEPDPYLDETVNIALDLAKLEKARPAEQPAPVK
The data set is described as follows: Sensitivity of protease Re proteolytic activity (casein) to inhibitors. The format is biochemical, E. coli.

The next data set relates to Mi. The format is biochemical, E. coli.
A further data set relates to Fa. The format is biochemical, E. coli.
Another data set concerns Protease So. The format is biochemical, E. coli.
Data set [2] concerns the target T1, La. As to the kind of experiment: biochemical. Particulars: read-out: stimulation of globin-degrading activity in peak IV.
The subject of the next data set is [^14 C] globin. As to the kind of experiment: Degradation of [14C] globin to acid-soluble products. The format is biochemical, beef.
For a further data set, the system named is [^3 H] casein. As to the kind of experiment: Degradation of [3H] casein to acid-soluble products. The format is biochemical, bovine.

bacitracin: in the data set with Protease Ci, the “inhibition of protease Ci activity by antibiotics” value is listed as “strongly inhibit”.

Turning to `CCN1C(=O)C=CC1=O` [N-ethyl maleimide], the “sensitivity of La to inhibitor” value on La [1] is reported as “inhibited”.

On to `Nc1ccn([C@@H]2O[C@H](COP(=O)(O)OP(=O)(O)OP(=O)(O)O)[C@@H](O)[C@H]2O)c(=O)n1` [CTP], for which the “stimulation of La proteolysis by nucleotides (in words)” value (from here on “stimulation of La proteolysis”) on La [1] was “stimulate but less effectively”.

Regarding `[Zn+2]` [Zn^++], the “stimulation of protease Ci activity by divalent cations” value (from here on “stimulation of protease Ci activity”) in the data set on Protease Ci is “not”.

On to `CCCCCCC1OC(=O)CNC(=O)C(C(C)O)NC(=O)C(CO)NC(=O)C(C(C)CC)NC(=O)C(CC(C)C)N(C)C(=O)C1C` (centres unmarked) [globomycin], for which, in the data set on Protease Ci (concentrations of 5-20 μg per ml), the “inhibition of protease Ci activity by antibiotics” value is “strongly inhibit”.

As for `O=C(O)CN(CCN(CC(=O)O)CC(=O)O)CC(=O)O` [EDTA], the “sensitivity of protease Re to inhibitor” value at Protease Re is “sensitive”. The “inhibition of Mi” value in the data set on Mi is “about 35%”. Besides, in the data set with Fa, the “inhibition of Fa” value is 60%.

In the case of `O=C(O)CN(CCOCCOCCN(CC(=O)O)CC(=O)O)CC(=O)O` [EGTA], the “inhibition of protease Ci activity” value in the data set on Protease Ci is reported as “not”.

On to `[Mn+2]` [Mn^++], for which, in the data set on Protease Ci, the “stimulation of protease Ci activity” value is recorded as “markedly stimulated”.

In the case of `[Co+2]` [Co^++], the “stimulation of protease Ci activity” value in the data set with Protease Ci was “markedly stimulated”.

As for `[O]=[V]([O-])([O-])[O-]` [Vanadate], the “sensitivity of La to inhibitor” value at La [1] was “sensitive to inhibition”.

Regarding `c1cnc2c(c1)ccc1cccnc12` [o-phenanthroline], the “sensitivity of protease Re to inhibitor” value on Protease Re (casein as substrate) is listed as “sensitive”. Also, the “inhibition of Mi” value with Mi was “about 35%”. Besides, the “inhibition of Fa” value in the data set with Fa is reported as “about 35%”. Besides, in the data set on Protease Ci, the “inhibition of protease Ci activity” value was “inhibited”.

Regarding `O=S(=O)(F)Cc1ccccc1` [phenylmethyl sulfonyl fluoride], the “sensitivity of protease Re to inhibitor” value at Protease Re is “sensitive”. Also, the “sensitivity of protease So to inhibitor” value in the data set on Protease So was “sensitive”. In addition, the “sensitivity of La to inhibitor” value at La [1] is listed as “sensitive”.

With `Nc1ncnc2c1ncn2[C@H]1C[C@H](O)[C@@H](COP(=O)(O)OP(=O)(O)OP(=O)(O)O)O1` [deoxyadenosine triphosphate], the “stimulation of La proteolysis” value on La [1] is reported as “stimulate but less effectively”.

`O=c1ccn([C@@H]2O[C@H](COP(=O)(O)OP(=O)(O)OP(=O)(O)O)[C@@H](O)[C@H]2O)c(=O)[nH]1` [UTP]: on La [1], the “stimulation of La proteolysis” value is “stimulate but less effectively”.

Take `Nc1ncnc2c1ncn2[C@@H]1O[C@H](COP(=O)(O)OP(=O)(O)OP(=O)(O)O)[C@@H](O)[C@H]1O` [ATP]: the “increase of degradation of globin and casein by La” value on La [1] (3000 µM) is 2.5-20 fold. Moreover, the fold induction at 3000 µM on La [2] fell in the range of 4 to 20.

With `O=C(O)c1cc[c]([Hg+])cc1.[OH-]` [p-hydroxymercuribenzoate], the “inhibition of protease Ci activity” value with Protease Ci is recorded as “sensitive”.

As for `N=C(N)c1ccc(OCCCCCOc2ccc(C(=N)N)cc2)cc1` [pentamidine], the “inhibition of protease So” value in the data set with Protease So is on record as “about 80%”.

B1: La: ATP-dependent cytoplasmic E. coli serine protease of peak IV, about 115,000 daltons (protein, UniProt P0A9M0 2-784, looked up)
Lon protease: NPERSERIEIPVLPLRDVVVYPHMVIPLFVGREKSIRCLEAAMDHDKKIMLVAQKEASTDEPGVNDLFTVGTVASILQMLKLPDGTVKVLVEGLQRARISALSDNGEHFSAKAEYLESPTIDEREQEVLVRTAISQFEGYIKLNKKIPPEVLTSLNSIDDPARLADTIAAHMPLKLADKQSVLEMSDVNERLEYLMAMMESEIDLLQVEKRIRNRVKKQMEKSQREYYLNEQMKAIQKELGEMDDAPDENEALKRKIDAAKMPKEAKEKAEAELQKLKMMSPMSAEATVVRGYIDWMVQVPWNARSKVKKDLRQAQEILDTDHYGLERVKDRILEYLAVQSRVNKIKGPILCLVGPPGVGKTSLGQSIAKATGRKYVRMALGGVRDEAEIRGHRRTYIGSMPGKLIQKMAKVGVKNPLFLLDEIDKMSSDMRGDPASALLEVLDPEQNVAFSDHYLEVDYDLSDVMFVATSNSMNIPAPLLDRMEVIRLSGYTEDEKLNIAKRHLLPKQIERNALKKGELTVDDSAIIGIIRYYTREAGVRGLEREISKLCRKAVKQLLLDKSLKHIEINGDNLHDYLGVQRFDYGRADNENRVGQVTGLAWTEVGGDLLTIETACVPGKGKLTYTGSLGEVMQESIQAALTVVRARAEKLGINPDFYEKRDIHVHVPEGATPKDGPSAGIAMCTALVSCLTGNPVRADVAMTGEITLRGQVLPIGGLKEKLLAAHRGGIKTVLIPFENKRDLEEIPDNVIADLDIHPVKRIEEVLTLALQNEPSGMQVVTAK
For the molecule B1, the degradation of globin result in [^14 C] globin is “capable of degrading”. Besides, in data set [^3 H] casein, the degradation of casein entry is “capable of degrading”.

B2: Do: E. coli serine protease of about 520,000 daltons, degrades globin and casein (protein, UniProt P0C0V0 27-474, looked up)
Periplasmic serine …: AETSSATTAQQMPSLAPMLEKVMPSVVSINVEGSTTVNTPRMPRNFQQFFGDDSPFCQEGSPFQSSPFCQGGQGGNGGGQQQKFMALGSGVIIDADKGYVVTNNHVVDNATVIKVQLSDGRKFDAKMVGKDPRSDIALIQIQNPKNLTAIKMADSDALRVGDYTVAIGNPFGLGETVTSGIVSALGRSGLNAENYENFIQTDAAINRGNSGGALVNLNGELIGINTAILAPDGGNIGIGFAIPSNMVKNLTSQMVEYGQVKRGELGIMGTELNSELAKAMKVDAQRGAFVSQVLPNSSAAKAGIKAGDVITSLNGKPISSFAALRAQVGTMPVGSKLTLGLLRDGKQVNVNLELQQSSQNQVDSSSIFNGIEGAEMSNKGKDQGVVVNNVKTGTPAAQIGLKKGDVIIGANQQAVKNIAELRKVLDSKPSVLALNIQRGDSTIYLLMQ
B2: the degradation of globin result in [^14 C] globin was “hydrolyze”. The degradation of casein result in data set [^3 H] casein is “hydrolyze”.
